Like-named read-outs stand apart in the source and are kept apart here.
Tests used:
P2X1 = molecular target: T1, P2X1 (Homo sapiens, UniProt P51575); test: Aequorin functional assay of P2X receptors in yeast; type: cell-based; conditions: upon ATP addition
T1 construct: expressed in transfected cells; host or cells: Saccharomyces cerevisiae BY4741 dCne1p, genome-integrated under the GAL1 promoter
T1 sequence (P51575 1-399): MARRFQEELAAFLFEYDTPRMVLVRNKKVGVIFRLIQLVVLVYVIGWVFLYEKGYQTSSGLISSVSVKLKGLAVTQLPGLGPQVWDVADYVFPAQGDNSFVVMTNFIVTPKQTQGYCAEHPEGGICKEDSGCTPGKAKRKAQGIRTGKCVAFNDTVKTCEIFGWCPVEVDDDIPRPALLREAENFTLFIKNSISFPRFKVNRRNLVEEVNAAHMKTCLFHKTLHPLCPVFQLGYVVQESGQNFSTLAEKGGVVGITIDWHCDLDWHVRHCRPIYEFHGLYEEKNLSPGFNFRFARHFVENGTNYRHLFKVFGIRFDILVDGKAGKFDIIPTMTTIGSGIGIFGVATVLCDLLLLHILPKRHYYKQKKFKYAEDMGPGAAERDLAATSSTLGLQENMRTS
Experimental: (§1) Ion channel activity in yeast was tested with the purinergic P2X ion channel family. Channel gating was assessed by an aequorin assay in which aequorin is co-expressed with the receptor and, upon addition of the prosthetic group coelenterazine and addition of calcium, blue light is released. The aequorin-based functional assay was performed in all seven P2X receptors (FIG. 8). P2X1-7 were integrated into the chromosome to mitigate copy number variation between clones and were induced with galactose with the pGal1 promoter. […] Among those receptors that didn't work, it was suspected that improvements in expression and trafficking can improve functionality. For example, by modulating trafficking domains within the P2X4 receptor, aggregation was reduced in vesicles (FIG. 9), and it is believed that this tactic can be employed in other receptors. […] This can be because P2X2 has the slowest desensitization rates of the family (and is often considered “non-desensitizing”) and has the highest unitary conductance (30 pS).
(§2) BY4741ΔCne1p cells were transformed with vectors containing P2X variants. Transformants were validated and made competent for a subsequent transformation with a vector containing aequorin under the expression of the constitutive PGK2 promoter. Overnight cells were induced with 2% […] for 20 hours. Following receptor expression, cells were collected by centrifugation and concentrated to 500 μL. The concentrated cells were then incubated with 5 μL of 1 mg/mL coelenterazine for 30 minutes at room temperature. Washed cells were then resuspended in softening buffer (1 M Sorbitol, 25 mM EDTA, 50 mM DTT), followed by washes in 1 M sorbitol and water. […] Using an F500, 25 μL of cells were monitored for luminescence for 5 seconds. Upon addition of ligand or buffer (100 μL), cells were monitored for luminescence for varying times. […] Luminescence was monitored before and after the addition of 100 μL of 10 μM ATP. Areas under the curve were calculated and plotted against a negative control to determine the IC50.

P2X4 = molecular target: T2, P2X4 (Homo sapiens, UniProt Q99571); test: as above; type: cell-based; conditions: upon ATP addition
T2 construct: expressed in transfected cells; host or cells: Saccharomyces cerevisiae BY4741 dCne1p, single-copy integration, GAL1 promoter
T2 sequence (Q99571 with tags, fused parts or gaps): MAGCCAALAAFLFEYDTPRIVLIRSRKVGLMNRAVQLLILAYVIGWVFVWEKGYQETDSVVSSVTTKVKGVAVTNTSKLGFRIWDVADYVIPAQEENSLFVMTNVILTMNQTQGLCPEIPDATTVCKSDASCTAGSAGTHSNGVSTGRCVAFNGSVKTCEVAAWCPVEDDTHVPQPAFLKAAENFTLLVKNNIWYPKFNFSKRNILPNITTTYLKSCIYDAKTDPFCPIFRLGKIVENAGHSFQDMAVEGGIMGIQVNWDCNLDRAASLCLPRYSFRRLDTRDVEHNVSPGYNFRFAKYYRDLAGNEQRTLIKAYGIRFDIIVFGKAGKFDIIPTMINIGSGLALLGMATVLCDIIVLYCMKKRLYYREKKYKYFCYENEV
Experimental: as §1, §2

P2X7 = molecular target: T3, P2X7 (Homo sapiens, UniProt Q99572); test: as above; type: cell-based; conditions: upon ATP addition
T3 construct: expressed in transfected cells; host or cells: Saccharomyces cerevisiae BY4741 dCne1p, genome-integrated under the GAL1 promoter
T3 sequence (Q99572 1-595): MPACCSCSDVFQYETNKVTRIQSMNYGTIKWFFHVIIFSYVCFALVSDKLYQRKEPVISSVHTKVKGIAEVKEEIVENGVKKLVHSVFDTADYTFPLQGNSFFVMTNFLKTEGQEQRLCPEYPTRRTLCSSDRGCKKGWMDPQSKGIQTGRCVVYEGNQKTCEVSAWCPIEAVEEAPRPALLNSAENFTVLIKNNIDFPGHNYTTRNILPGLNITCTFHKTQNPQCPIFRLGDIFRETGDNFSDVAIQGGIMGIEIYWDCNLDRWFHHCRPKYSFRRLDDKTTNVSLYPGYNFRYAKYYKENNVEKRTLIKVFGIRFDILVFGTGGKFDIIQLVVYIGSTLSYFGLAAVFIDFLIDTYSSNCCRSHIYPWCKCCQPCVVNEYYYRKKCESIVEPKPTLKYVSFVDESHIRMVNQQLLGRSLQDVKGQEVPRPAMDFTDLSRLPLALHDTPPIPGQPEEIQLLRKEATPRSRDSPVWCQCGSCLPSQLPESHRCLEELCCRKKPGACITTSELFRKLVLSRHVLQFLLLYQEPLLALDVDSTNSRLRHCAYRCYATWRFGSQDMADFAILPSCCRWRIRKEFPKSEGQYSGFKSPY
Experimental: as §1, §2

P2X2 [1] = molecular target: T4, P2X2 (Homo sapiens, UniProt Q9UBL9); test: Plate-based aequorin luminescence assay of P2X2 expressed in yeast; type: cell-based; parameters: expressed in transfected cells; host or cells: Saccharomyces cerevisiae BY4741 dCne1p, genome-integrated under the GAL1 promoter, aequorin on a high-copy plasmid
T4 sequence (Q9UBL9 1-471): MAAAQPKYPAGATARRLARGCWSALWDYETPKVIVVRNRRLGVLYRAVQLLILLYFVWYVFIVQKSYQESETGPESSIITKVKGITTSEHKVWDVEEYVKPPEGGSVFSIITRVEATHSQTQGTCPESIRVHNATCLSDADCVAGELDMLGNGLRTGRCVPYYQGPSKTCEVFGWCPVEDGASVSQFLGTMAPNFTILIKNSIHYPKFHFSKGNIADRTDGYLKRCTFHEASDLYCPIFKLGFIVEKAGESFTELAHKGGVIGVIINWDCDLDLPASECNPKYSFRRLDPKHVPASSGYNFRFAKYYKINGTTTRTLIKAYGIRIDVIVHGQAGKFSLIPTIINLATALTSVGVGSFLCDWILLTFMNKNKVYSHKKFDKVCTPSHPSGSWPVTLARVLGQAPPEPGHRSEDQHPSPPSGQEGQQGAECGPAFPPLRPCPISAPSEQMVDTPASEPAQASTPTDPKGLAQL
Experimental: as §1
To determine whether or not this truncated channel gated in yeast, an aequorin-based functional assay was used. Here aequorin, a bioluminescent protein, emits a photon upon binding calcium. This is done with the aid of coelenterazine, which must be added exogenously to yeast. The reaction is not catalytic, and the off-rate of calcium is too slow to observe on the timescales utilized in our assays. To optimize conditions for expression of both the receptor and reporter, a combination of integration, low-copy, and high-copy vectors was used. At this point, it was only possible to produce a signal upon addition of ATP, the native ligand, when both the receptor and reporter were expressed on high-copy plasmids (FIG. 56).
BY4741ΔCne1p cells were transformed with vectors containing P2X variants. Transformants were validated and made competent for a subsequent transformation with a vector containing aequorin under the expression of the constitutive PGK2 promoter. Overnight cells were induced with 2% […] for 20 hours. Following receptor expression, cells were collected by centrifugation and concentrated to 500 μL. The concentrated cells were then incubated with 5 μL of 1 mg/mL coelenterazine for 30 minutes at room temperature. Washed cells were then resuspended in softening buffer (1 M Sorbitol, 25 mM EDTA, 50 mM DTT), followed by washes in 1 M sorbitol and water. Cells were then resuspended in 50 mM MES/Tris pH 6.5 and aliquoted into a 96-well plate. Using an F500, 25 μL of cells were monitored for luminescence for 5 seconds. Upon addition of ligand or buffer (100 μL), cells were monitored for luminescence for varying times. Cell lysis was performed with the addition of 100 μL Tween20. For inhibition, varying concentrations of suramin were incubated with cells. Luminescence was monitored before and after the addition of 100 μL of 10 μM ATP. Areas under the curve were calculated and plotted against a negative control to determine the IC50.

human 5HT1A = molecular target: T5, human 5HT1A (Homo sapiens, UniProt P08908); test: GPCR-CPR proof of concept, emulsion PCR amplification in yeast; type: cell-based; conditions: cells treated with 250 μM serotonin vs negative control; single-copy integration at HO site
T5 construct: expressed in transfected cells; host or cells: Saccharomyces cerevisiae JG05-2.0 (2 micron plasmid, pTDH3) / JG05-1.0 (single-copy integration at HO)
T5 sequence (P08908 1-422): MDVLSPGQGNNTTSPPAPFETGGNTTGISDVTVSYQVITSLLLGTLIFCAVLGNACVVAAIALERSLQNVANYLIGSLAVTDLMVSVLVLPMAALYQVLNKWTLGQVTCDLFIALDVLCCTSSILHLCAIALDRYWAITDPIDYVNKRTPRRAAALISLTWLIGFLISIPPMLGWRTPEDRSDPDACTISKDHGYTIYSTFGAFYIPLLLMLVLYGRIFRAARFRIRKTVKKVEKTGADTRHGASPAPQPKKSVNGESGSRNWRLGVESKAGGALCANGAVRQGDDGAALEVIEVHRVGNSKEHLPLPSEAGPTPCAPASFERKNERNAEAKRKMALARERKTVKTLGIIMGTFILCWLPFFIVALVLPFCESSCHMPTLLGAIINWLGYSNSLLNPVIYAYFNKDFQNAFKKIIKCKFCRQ
Description: Having shown functionality of the 5HT1A receptor, CPR strains (JG05-1.0) were constructed using this receptor. […] However, background was mitigated by increasing the pH of the CPR master mix to pH 8.8 and lowering the number of cycles from 35 to 20 during the emulsion PCR. […] Further optimization of expression parameters can greatly increase the signal:noise. For example, a much more pronounced difference can be seen when expressing the receptor from a high-copy plasmid. The experiments outlined here were also performed with cells growing with the ligand for 18 hours. By concentrating the cells and limiting the time of induction, a decrease in background signal can be seen.
Control cells were not induced. Cells (3 mL total) were collected after 18 hours of induction and spun in a tabletop centrifuge at 3,000×g for 5 minutes. The supernatant was discarded and the cell pellet was washed in water and then resuspended in 1 M sorbitol, 25 mM EDTA, 50 mM DTI′. Cells were collected again and washed in 1 M sorbitol. After another wash with water, cells were resuspended in 500 μL PCR mastermix (pH 8.0 or pH 8.8). The resuspended cells were placed into a 2 mL tube with a 1 mL rubber syringe plunger and 1200 μL of oil mix (876 Tegosoft DEC, 84 Gransurf W9, and 240 μL light mineral oil (Sigma-Aldrich)). […]

P2X2 [2] = molecular target: T4, P2X2; conditions: Baqi et al., 2011; Lambrecht et al., 2002; read-out: range of reported IC50 values; cited from earlier work

## Nc1ncnc2c1ncn2[C@@H]1O[C@H](COP(=O)(O)OP(=O)(O)OP(=O)(O)O)[C@@H](O)[C@H]1O [ATP]
P2X1
  ligand-dependent gating, calcium influx: showed an ATP-dependent calcium influx
P2X4
  ligand-dependent gating, calcium influx: showed an ATP-dependent calcium influx
P2X7
  ligand-dependent gating, calcium influx: showed an ATP-dependent calcium influx
P2X2 [1]; aequorin luminescence
  agonism / gating of P2X2: showed an ATP-dependent calcium influx
P2X2 [1]; dose-response, area under luminescence curve
  EC50: 6.7 ± 1.5 µM

## NCCc1c[nH]c2ccc(O)cc12 [serotonin]
Human 5HT1A
  increase in signal of CPR amplification product: 20 fold

## Cc1ccc(C(=O)Nc2ccc(S(=O)(=O)O)c3cc(S(=O)(=O)O)cc(S(=O)(=O)O)c23)cc1NC(=O)c1cccc(NC(=O)Nc2cccc(C(=O)Nc3cc(C(=O)Nc4ccc(S(=O)(=O)O)c5cc(S(=O)(=O)O)cc(S(=O)(=O)O)c45)ccc3C)c2)c1 [suramin]
P2X2 [2]
  IC50: 2 to 48 µM
P2X2 [1]; cells equilibrated with suramin, then 10 μM ATP
  IC50: 31.6 ± 1.4 µM

Source: patent US11746374B2, “Methods and platform for screening and selecting metabolites and their receptors” (BOARD OF REGENTS, THE UNIVERSITY OF TEXAS SYSTEM, priority 2017, dated 2023)
